Measured values as given in ChEMBL document CHEMBL5584348, “Exploring Degradation of Intrinsically Disordered Protein Yes-Associated Protein Induced by Proteolysis TArgeting Chimeras” (J Med Chem, 2024).
Active and inactive are the calls of the source. The rule behind the calls is not given here.

Columns and labels:
NCI-H226 = assay: Antiproliferative activity against human NCI-H226 cells assessed as cell killing at 10 uM incubated for 3 days by CCK-8 assay; type: functional, cell-based; conditions: time 3.0 day
Huh-7 [1] = assay: Antitumor activity against human Huh-7 cells xenografted in immunodeficient male NSG mouse assessed as tumor growth inhibition at 35 mg/kg, ip administered every 3 days for 24 days; type: functional; conditions: Huh-7, 576 h, time 24 day, read-out: TGI
[2] = Cmax in Sprague-Dawley rat at 35 mg/kg, ip measured upto 24 hrs by LC-MS/MS analysis; type: ADME, organism-based; conditions: in vivo
[3] = target: T1, von Hippel-Lindau disease tumor suppressor/Transcriptional coactivator YAP1 (Homo sapiens, UniProt P40337+P46937); assay: PROTAC activity at YAP/VHL in human Huh-7 cells assessed as reduction on CTGF expression incubated for 48 hrs by Western blot analysis; type: cell-based; conditions: dose 2.5-20 µM
Target sequence in this assay (P40337 whole entry, looked up): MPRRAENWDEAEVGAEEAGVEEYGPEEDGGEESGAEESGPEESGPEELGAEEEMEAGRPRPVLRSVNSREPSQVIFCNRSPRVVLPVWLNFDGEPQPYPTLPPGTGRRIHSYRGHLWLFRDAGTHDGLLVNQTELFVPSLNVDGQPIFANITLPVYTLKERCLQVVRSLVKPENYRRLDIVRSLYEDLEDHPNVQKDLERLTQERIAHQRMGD
Target sequence in this assay (P46937 whole entry, looked up): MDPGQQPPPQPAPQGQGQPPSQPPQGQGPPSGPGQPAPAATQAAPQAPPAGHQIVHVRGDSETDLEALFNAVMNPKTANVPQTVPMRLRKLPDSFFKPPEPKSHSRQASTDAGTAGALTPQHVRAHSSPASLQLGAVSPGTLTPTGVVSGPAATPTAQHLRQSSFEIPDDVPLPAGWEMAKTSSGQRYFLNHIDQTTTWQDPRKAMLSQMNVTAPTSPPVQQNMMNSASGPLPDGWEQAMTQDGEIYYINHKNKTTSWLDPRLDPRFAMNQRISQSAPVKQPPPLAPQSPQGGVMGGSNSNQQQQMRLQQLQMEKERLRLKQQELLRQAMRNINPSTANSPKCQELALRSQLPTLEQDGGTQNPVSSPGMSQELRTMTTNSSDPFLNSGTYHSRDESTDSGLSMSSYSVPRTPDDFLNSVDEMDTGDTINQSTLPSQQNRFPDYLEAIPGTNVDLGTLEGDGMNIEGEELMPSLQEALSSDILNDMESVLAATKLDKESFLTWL

[4] = target: T1, von Hippel-Lindau disease tumor suppressor/Transcriptional coactivator YAP1; assay: PROTAC activity at YAP/VHL in human Huh-7 cells assessed as induction of YAP degradation at 20 uM incubated at 48 hrs by Western blot analysis; type: cell-based
Target sequence in this assay (P40337 whole entry, looked up): as the sequence (P40337 whole entry, looked up) above
Target sequence in this assay (P46937 whole entry, looked up): as the sequence (P46937 whole entry, looked up) above

[5] = target: T1, von Hippel-Lindau disease tumor suppressor/Transcriptional coactivator YAP1; assay: PROTAC activity at YAP/VHL in human NCI-H226 cells assessed as induction of YAP degradation incubated for 48 hrs by Western blot analysis; type: cell-based
Target sequence in this assay (P40337 whole entry): as the sequence (P40337 whole entry, looked up) above
Target sequence in this assay (P46937 whole entry): as the sequence (P46937 whole entry, looked up) above

[6] = Toxicity in immunodeficient male NSG mouse xenografted with human Huh-7 cells assessed as morphological abnormalities in liver at 35 mg/kg, ip administered every 3 days for 24 days by H and E staining based analysis; type: organism-based; conditions: in vivo, 576 h, time 24 day
[7] = target: T1, von Hippel-Lindau disease tumor suppressor/Transcriptional coactivator YAP1; assay: PROTAC activity at YAP/VHL in human Huh-7 cells assessed as induction of YAP degradation at 20 uM measured for 24 hrs in presence of MG-132 by Western blot analysis; type: cell-based
Target sequence in this assay (P40337 whole entry, looked up): as the sequence (P40337 whole entry, looked up) above
Target sequence in this assay (P46937 whole entry, looked up): as the sequence (P46937 whole entry, looked up) above

[8] = target: T1, von Hippel-Lindau disease tumor suppressor/Transcriptional coactivator YAP1; assay: PROTAC activity at YAP/VHL in human NCI-H226 cells assessed as induction of YAP degradation at 2.5 to 20 uM incubated for 48 hrs by Western blot analysis relative to control; type: cell-based; conditions: dose 2.5-20 µM
Target sequence in this assay (P40337 whole entry, looked up): as the sequence (P40337 whole entry, looked up) above
Target sequence in this assay (P46937 whole entry, looked up): as the sequence (P46937 whole entry, looked up) above

[9] = target: T1, von Hippel-Lindau disease tumor suppressor/Transcriptional coactivator YAP1; assay: PROTAC activity at YAP/VHL in human Huh-7 cells assessed as induction of YAP degradation at 10 uM measured for 24 hrs by Western blot analysis relative to control; type: cell-based
Target sequence in this assay (P40337 whole entry, looked up): as the sequence (P40337 whole entry, looked up) above
Target sequence in this assay (P46937 whole entry, looked up): as the sequence (P46937 whole entry, looked up) above

[10] = Toxicity in immunodeficient male NSG mouse xenografted with human Huh-7 cells assessed as change in AST level in liver at 35 mg/kg, ip administered every 3 days for 24 days; type: organism-based; conditions: in vivo, 576 h, time 24 day
[11] = target: Transcriptional coactivator YAP1 (Homo sapiens) (UniProt P46937); assay: Inhibition of YAP nuclear localization in human Huh-7 cells assessed as decrease in integrated YAP intensity incubated for 12 hrs by immunofluorescence based microscopic analysis; type: cell-based; conditions: dose <= 20.0 µM
AML12 = assay: Antiproliferative activity against mouse AML12 cells assessed as suppression of cell proliferation incubated for 4 days by CCK-8 assay; type: toxicity, cell-based; conditions: aml12, 96 h, time 4 day
[12] = target: T1, von Hippel-Lindau disease tumor suppressor/Transcriptional coactivator YAP1; assay: PROTAC activity at YAP/VHL in human Huh-7 cells assessed as induction of YAP degradation by measuring half life at 20 uM incubated at 48 hrs by Western blot analysis; type: cell-based
Target sequence in this assay (P40337 whole entry, looked up): as the sequence (P40337 whole entry, looked up) above
Target sequence in this assay (P46937 whole entry, looked up): as the sequence (P46937 whole entry, looked up) above

[13] = target: Transcriptional coactivator YAP1 (Homo sapiens) (UniProt P46937); assay: Inhibition of YAP nuclear localization in human Huh-7 cells assessed as decrease in mean YAP intensity incubated for 12 hrs by immunofluorescence based microscopic analysis; type: cell-based; conditions: dose <= 20.0 µM
[14] = target: von Hippel-Lindau disease tumor suppressor/WW domain-containing transcription regulator protein 1 (Homo sapiens) (UniProt P40337+Q9GZV5); assay: PROTAC activity at TAZ/VHL in human Huh-7 cells assessed as reduction in TAZ expression incubated for 24 hrs by Western blot analysis; type: cell-based; conditions: dose 5-20 µM
[15] = Half life in Sprague-Dawley rat at 35 mg/kg, ip measured upto 24 hrs by LC-MS/MS analysis; type: ADME, organism-based; conditions: in vivo
[16] = target: T1, von Hippel-Lindau disease tumor suppressor/Transcriptional coactivator YAP1; assay: PROTAC activity at YAP/VHL in human Huh-7 cells assessed as induction of YAP degradation at 20 uM incubated at 24 hrs by Western blot analysis; type: cell-based
Huh-7 [17] = assay: Antitumor activity against human Huh-7 cells xenografted in immunodeficient male NSG mouse assessed as inhibition of tumor growth at 35 mg/kg, ip administered for 3 days; type: functional, organism-based; conditions: time 3.0 day
[18] = target: T1, von Hippel-Lindau disease tumor suppressor/Transcriptional coactivator YAP1; assay: PROTAC activity at YAP/VHL in human NCI-H226 cells assessed as downregulation of YAP level at 20 uM incubated at 24 hrs by Western blot analysis; type: cell-based
Huh-7 [19] = assay: Antiproliferative activity against human Huh-7 cells overexpressing YAP assessed as cell growth inhibition incubated for 4 days by CCK-8 assay; type: functional, cell-based; conditions: Huh-7, 96 h
[20] = Tmax in Sprague-Dawley rat at 35 mg/kg, ip measured upto 24 hrs by LC-MS/MS analysis; type: ADME, organism-based; conditions: in vivo
Huh-7 [21] = assay: Antitumor activity against human Huh-7 cells xenografted in immunodeficient male NSG mouse assessed as suppression of YAP expression at 35 mg/kg, ip administered every 3 days for 24 days; type: functional, organism-based; conditions: time 24.0 day
[22] = target: T1, von Hippel-Lindau disease tumor suppressor/Transcriptional coactivator YAP1; assay: PROTAC activity at YAP/VHL in human Huh-7 cells assessed as induction of YAP degradation at 20 uM measured for 24 hrs in presence of MLN-4924 by Western blot analysis; type: cell-based
[23] = target: T1, von Hippel-Lindau disease tumor suppressor/Transcriptional coactivator YAP1; assay: PROTAC activity at YAP/VHL in human Huh-7 cells assessed as induction of YAP degradation incubated for 48 hrs by Western blot analysis; type: cell-based
Target sequence in this assay (P40337 whole entry): as the sequence (P40337 whole entry, looked up) above
Target sequence in this assay (P46937 whole entry): as the sequence (P46937 whole entry, looked up) above

[24] = target: T1, von Hippel-Lindau disease tumor suppressor/Transcriptional coactivator YAP1; assay: PROTAC activity at YAP/VHL in human Huh-7 cells assessed as induction of YAP degradation at 20 uM measured for 24 hrs by Western blot analysis relative to control; type: cell-based
[25] = target: T1, von Hippel-Lindau disease tumor suppressor/Transcriptional coactivator YAP1; assay: PROTAC activity at YAP/VHL in human NCI-H226 cells assessed as induction of YAP degradation at 20 uM incubated at 48 hrs by Western blot analysis; type: cell-based
[26] = target: T1, von Hippel-Lindau disease tumor suppressor/Transcriptional coactivator YAP1; assay: PROTAC activity at YAP/VHL in human NCI-H226 cells assessed as reduction in CTGF expression incubated for 48 hrs by Western blot analysis; type: cell-based; conditions: dose 2.5-20 µM
[27] = target: T1, von Hippel-Lindau disease tumor suppressor/Transcriptional coactivator YAP1; assay: PROTAC activity at YAP/VHL in human Huh-7 cells assessed as induction of YAP degradation at 20 uM pretreated with VHL ligand 2 for 2 hrs followed by compound addition and measured after 24 hrs by Western blot analysis; type: cell-based
NCI-H2452 = assay: Antiproliferative activity against human NCI-H2452 cells expressing NF2 assessed as reduction in cell viability incubated for 4 days by CCK-8 assay; type: functional, cell-based; conditions: time 4.0 day
[28] = AUClast in Sprague-Dawley rat at 35 mg/kg, ip measured upto 24 hrs by LC-MS/MS analysis; type: ADME, organism-based; conditions: in vivo
[29] = MRT (0 to infinity) in Sprague-Dawley rat at 35 mg/kg, ip measured upto 24 hrs by LC-MS/MS analysis; type: ADME, organism-based; conditions: in vivo
[30] = target: T1, von Hippel-Lindau disease tumor suppressor/Transcriptional coactivator YAP1; assay: PROTAC activity at YAP/VHL in human NCI-H226 cells assessed as reduction in YAP level at 10 uM incubated for 48 hrs by Western blot analysis relative to control; type: cell-based; set-up: scale not given: the % may be the effect or the level left
[31] = target: T1, von Hippel-Lindau disease tumor suppressor/Transcriptional coactivator YAP1; assay: PROTAC activity at YAP/VHL in human Huh-7 cells assessed as downregulation of YAP level at 20 uM incubated at 24 hrs by Western blot analysis; type: cell-based

Chain of Transcriptional coactivator YAP1 (Homo sapiens) (P46937 whole entry, the tested form may be a part): as the sequence (P46937 whole entry, looked up) above
Chain of von Hippel-Lindau disease tumor suppressor/WW domain-containing transcription regulator protein 1 (Homo sapiens) (P40337 whole entry, looked up, the tested form may be a part): as the sequence (P40337 whole entry, looked up) above
Chain of von Hippel-Lindau disease tumor suppressor/WW domain-containing transcription regulator protein 1 (Homo sapiens) (Q9GZV5 whole entry, looked up, the tested form may be a part): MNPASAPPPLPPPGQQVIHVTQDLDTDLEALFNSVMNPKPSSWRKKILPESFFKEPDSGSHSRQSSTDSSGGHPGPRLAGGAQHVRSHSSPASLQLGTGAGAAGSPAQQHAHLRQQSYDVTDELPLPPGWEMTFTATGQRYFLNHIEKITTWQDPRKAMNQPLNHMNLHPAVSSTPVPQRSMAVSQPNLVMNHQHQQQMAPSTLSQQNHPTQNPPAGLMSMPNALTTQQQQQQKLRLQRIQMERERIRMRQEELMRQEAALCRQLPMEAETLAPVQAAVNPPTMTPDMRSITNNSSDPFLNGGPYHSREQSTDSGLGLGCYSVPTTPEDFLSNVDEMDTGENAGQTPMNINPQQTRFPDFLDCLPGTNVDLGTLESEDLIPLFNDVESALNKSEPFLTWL

Cmax [2]: 193 ng/mL | Activity [3]: Dose-Dependent Effect | Activity [4]: 98% | DC50 [5]: 8.2 µM | Activity [7]: Active | Emax [8]: 97% | Activity [9]: 50% | inhibition [11]: Dose-Dependent Effect | T1/2 [12]: 16.5 h | inhibition [13]: Dose-Dependent Effect | Activity [14]: Dose-Dependent Effect | half-life [15]: 13.3 h | Activity [16]: 65% | Activity [18]: Active | IC50 (Huh-7 [19]): 2.9 µM | Tmax [20]: 3.33 h | Activity [22]: Active | DC50 [23]: 4.3 µM | Activity [24]: 78% | Activity [25]: 97% | Activity [26]: Dose-Dependent Effect | Activity [27]: Active | AUC(0-t) at 24 h [28]: 1940 ng·h/mL | MRT inf [29]: 19.9 h | Activity [30]: 80% | Activity [31]: Active
SMILES: COc1cc(-c2cc(-c3ccccc3)nc3c2CC(=O)Nc2ccccc2-3)ccc1OCCOCCOCCC(=O)N[C@H](C(=O)N1C[C@H](O)C[C@H]1C(=O)N[C@@H](C)c1ccc(-c2scnc2C)cc1)C(C)(C)C
Activity (NCI-H226): inactive | inhibition in vivo at 35 mg/kg (Huh-7 [1]): 82% | Activity [6]: Non-Toxic | Activity [10]: Non-Toxic | Activity (AML12): Non-Toxic | Activity (Huh-7 [17]): Active | Activity (Huh-7 [21]): Active | Activity (NCI-H2452): inactive
